# Where no end group is shown, it is not given here.
# System: drug-resistant Mycobacterium tuberculosis
# Type: cell-based
# Conditions: 10 micrograms per ml; seven days at 37° C.; strain resistant to PAS, streptomycin and isoniazid
row,Substance,inhibition of the growth of Mycobacterium tuberculosis [%]
1,D-Ala-Gln-octadecyl ester [Peptide 2],100
2,Lys-Ile-Cys-Ile-Arg-Ile-Gln-Ile-Ser-OH (KICIRIQIS-OH) [Peptide 1],100
